Data on 15 molecules can be found in patent US20250092017A1, “2-PIPERIDYL OR 2-PYRAZOLYL SUBSTITUTED PYRIMIDINE COMPOUND SERVING AS EGFR INHIBITOR” (SUZHOU PUHE BIOPHARMA CO., LTD., priority 2022, published 2025).

Read-outs that look alike come from different tables or passages of the source. Some results are limits rather than exact numbers.

Assay [1] concerns Ba/F3-FL-EGFR-del19-C797S. Briefly: CellTiter-Glo proliferation, Ba/F3-FL-EGFR-del19-C797S. Type of assay: cell-based. The note with it: proliferation, 72 hours, CellTiter-Glo, read-out: Ba/F3-FL-EGFR-del19-C797S IC50/nM. As to the method:
(§1) Promega CellTiter-Glo reagent was used to detect the effects of small molecule inhibitors on the proliferation of five Ba/F3 cell lines (Ba/F3-FL-EGFR, Ba/F3-FL-EGFR-L858R, Ba/F3-FL-EGFR-L858R-T790M-C797S, Ba/F3-TEL-EGFR-L858R-C797S and Ba/F3-FL-EGFR-del19-C797S).
(§2) The cell lines were cultured in an incubator at 37° C. and 5% CO2. Cells were passaged regularly and cells in the logarithmic phase were used for plating. 95 μL of cell suspension was added to each well of the cell plate, and culture medium without cells (containing 0.1% DMSO) was added to the Min control wells. Substance addition for compound detection cell plate: 5 μL of 20× compound working solution was added to the cell culture plate as shown in the table below. 50 μL of DMSO-cell culture medium mixture was added to the Max control, with the final DMSO concentration of 0.1%. 5 μL of DMSO-cell culture medium mixture was added to the Max control. The final DMSO concentration was 0.1%.
(§3) The compounds to be tested were added as per the table below
(§4) Cell viability was detected by CellTiter-Glo luminescence assay. Data analysis:
(§5) The cell proliferation inhibition rate (Inhibition Rate) data was processed using the following formula: […]
(§6) wherein: RLUDrug represents the relative luminescence unit of the cells with the addition of drug, RLUMin represents the luminescence unit of the culture medium, and RLUMax represents the relative luminescence unit of the cells with the addition of DMSO.
(§7) The inhibition rates corresponding to different concentrations of compounds were calculated in EXCEL, and then the inhibition rate curve was plotted using GraphPad Prism software and related parameters including the maximum and minimum inhibition rates of cells and IC50 values were calculated.
On the technique in general: ATP-based viability assays read luminescence as a measure of living cells.

The target in assay [2] is T1, Ba/F3-TEL-EGFR-L858R-C797S (Homo sapiens, UniProt P00533, C797S/L858R, cells depend on it).
T1 construct: fused on or other part: N-terminal TEL (ETV6) oligomerising part fused to the EGFR intracellular/kinase part; P41212 (Transcription factor ETV6)
T1 sequence (P00533 whole entry C797S/L858R, the tested form may be a part): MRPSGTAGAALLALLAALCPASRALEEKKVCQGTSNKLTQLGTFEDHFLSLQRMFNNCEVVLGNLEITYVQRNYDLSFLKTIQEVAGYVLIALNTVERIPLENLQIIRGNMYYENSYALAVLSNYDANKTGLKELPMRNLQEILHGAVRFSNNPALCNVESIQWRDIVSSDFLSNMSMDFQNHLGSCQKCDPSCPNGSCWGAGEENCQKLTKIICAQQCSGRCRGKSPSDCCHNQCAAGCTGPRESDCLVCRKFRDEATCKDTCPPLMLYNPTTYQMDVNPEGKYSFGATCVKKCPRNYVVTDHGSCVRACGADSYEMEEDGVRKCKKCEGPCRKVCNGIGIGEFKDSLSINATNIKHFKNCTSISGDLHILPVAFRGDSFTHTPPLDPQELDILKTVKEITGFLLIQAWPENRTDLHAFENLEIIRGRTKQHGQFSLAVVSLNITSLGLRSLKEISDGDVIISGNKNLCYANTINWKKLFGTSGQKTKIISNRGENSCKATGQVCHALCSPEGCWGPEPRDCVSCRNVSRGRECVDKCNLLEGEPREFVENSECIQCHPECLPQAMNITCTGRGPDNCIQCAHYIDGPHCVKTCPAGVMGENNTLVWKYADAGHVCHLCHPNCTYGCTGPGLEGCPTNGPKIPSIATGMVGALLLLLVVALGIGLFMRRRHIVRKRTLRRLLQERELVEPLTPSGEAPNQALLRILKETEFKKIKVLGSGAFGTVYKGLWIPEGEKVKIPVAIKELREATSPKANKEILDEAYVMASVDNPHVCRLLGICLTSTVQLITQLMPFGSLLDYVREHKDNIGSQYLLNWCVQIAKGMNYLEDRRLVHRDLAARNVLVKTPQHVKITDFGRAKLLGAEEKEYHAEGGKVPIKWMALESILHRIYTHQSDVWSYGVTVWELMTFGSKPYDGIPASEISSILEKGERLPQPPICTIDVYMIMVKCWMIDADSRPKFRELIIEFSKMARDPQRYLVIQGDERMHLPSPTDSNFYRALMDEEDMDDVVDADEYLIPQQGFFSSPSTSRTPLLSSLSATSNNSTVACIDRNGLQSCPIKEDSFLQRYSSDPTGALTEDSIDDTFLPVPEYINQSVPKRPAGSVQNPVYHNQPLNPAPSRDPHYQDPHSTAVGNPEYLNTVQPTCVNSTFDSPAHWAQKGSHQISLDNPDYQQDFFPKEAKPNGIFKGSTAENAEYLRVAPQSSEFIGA
Nature of the assay: CellTiter-Glo proliferation, Ba/F3-TEL-EGFR-L858R-C797S. Type of assay: cell-based. Conditions: 72 hours, read-out: Ba/F3-TEL-EGFR-L858R-C797S IC50/nM. As to the method:
as §1, §2, §3, §4, §5, §6, §7

In assay [3] the target is Ba/F3-FL-EGFR-L858R (Homo sapiens, UniProt P00533, L858R, cells depend on it). Nature of the assay: CellTiter-Glo proliferation, Ba/F3-FL-EGFR-L858R. The note with it: 72 hours, read-out: Ba/F3-FL-EGFR-L858R IC50/nM. The class given is cell-based. The protocol:
as §1, §2, §3, §4, §5, §6, §7

The target of assay [4] is EGFR (L858R/T790M/C797S) (Homo sapiens, UniProt P00533, C797S/L858R/T790M). Nature of the assay: MSA (Mobility Shift Assay) kinase activity, EGFR-L858R-T790M-C797S. Type of assay: biochemical. The protocol:
(§8) The MSA (Mobility Shift Assay) method was used to detect the effects of small molecule inhibitors on the kinase activity of EGFR wild type and its mutants (EGFR^wt, EGFR-L858R, EGFR-L858R-T790M-C797S, EGFR-L858R-C797S).
(§9) 10 μL of kinase solution at 2.5 times the final concentration was added to the compound wells and positive control Max wells; 10 μL of 1x kinase buffer was added to the negative control Min wells. The mixture was centrifuged at 1000 rpm for 30 seconds, and the reaction plate was shaken to mix the solution well and then incubated at room temperature for 10 minutes. A mixed solution of ATP and kinase substrate at 5/3 times the final concentration was prepared in 1x kinase buffer. 15 μL of a mixed solution of ATP and substrate at 5/3 times the final concentration was added to initiate the reaction. The 384-well plate was centrifuged at 1000 rpm for 30 seconds, and shaken to mix the solution well and then incubated at room temperature for the corresponding time. 30 μL of stop detection solution was added to stop the kinase reaction, and the mixture was centrifuged at 1000 rpm for 30 seconds, and then to mixed well by shaking. The conversion rate was read using Caliper EZ Reader.
(§10) wherein: Conversion %_sample is the conversion rate reading of the sample; Conversion %_min is the mean of the negative control wells, representing the conversion rate reading of the wells without enzyme activity; Conversion %_max is the mean of the positive control wells, representing the conversion rate reading of the wells without compound inhibition.
(§11) The log (inhibitor) vs. response —Variable slope of the analysis software GraphPad Prism 5 was used to fit the dose-effect curve, where the log value of the concentration was used as the X-axis and the percentage inhibition rate was used as the Y-axis, to obtain the IC50 value of each compound on the enzyme activity.
(§12) The calculation formula is Y=Bottom+(Top-Bottom)/(1+10^((Log IC50−X)*Hill Slope))

In assay [5] the target is EGFR (wild-type) (Homo sapiens, UniProt P00533). Nature of the assay: MSA (Mobility Shift Assay) kinase activity, EGFR wild type. The class given is biochemical. Conditions: read-out: EGFR wt/ IC50/nM. As to the method:
as §8, §9, §10, §11, §12

Assay [6] concerns the target EGFR (L858R/C797S) (Homo sapiens, UniProt P00533, C797S/L858R). Nature of the assay: MSA (Mobility Shift Assay) kinase activity, EGFR-L858R-C797S. Type of assay: biochemical. The protocol: as §8, §9, §10, §11, §12
For assay [7], the target named is Ba/F3-FL-EGFR-L858R-T790M-C797S (Homo sapiens, UniProt P00533, T790M/C797S/L858R, cells depend on it). Briefly: CellTiter-Glo proliferation, Ba/F3-FL-EGFR-L858R-T790M-C797S. The class given is cell-based. The note with it: 72 hours, read-out: Ba/F3-FL-EGFR-L858R-T790M-C797S IC50/nM. The protocol:
as §1, §2, §3, §4, §5, §6, §7

The target in assay [8] is EGFR (L858R) (Homo sapiens, UniProt P00533, L858R). Briefly: MSA (Mobility Shift Assay) kinase activity, EGFR-L858R. Type of assay: biochemical. The protocol:
as §8, §9, §10, §11, §12

The target in assay [9] is T2, Ba/F3-FL-EGFR (Homo sapiens, UniProt P00533).
T2 construct: FL read as full length
Briefly: CellTiter-Glo proliferation, Ba/F3-FL-EGFR. The class given is cell-based. Conditions: 72 hours, read-out: Ba/F3-FL-EGFR IC50/nM. As to the method:
as §1, §2, §3, §4, §5, §6, §7

EGFR (L858R), sequence (P00533 25-1210 L858R): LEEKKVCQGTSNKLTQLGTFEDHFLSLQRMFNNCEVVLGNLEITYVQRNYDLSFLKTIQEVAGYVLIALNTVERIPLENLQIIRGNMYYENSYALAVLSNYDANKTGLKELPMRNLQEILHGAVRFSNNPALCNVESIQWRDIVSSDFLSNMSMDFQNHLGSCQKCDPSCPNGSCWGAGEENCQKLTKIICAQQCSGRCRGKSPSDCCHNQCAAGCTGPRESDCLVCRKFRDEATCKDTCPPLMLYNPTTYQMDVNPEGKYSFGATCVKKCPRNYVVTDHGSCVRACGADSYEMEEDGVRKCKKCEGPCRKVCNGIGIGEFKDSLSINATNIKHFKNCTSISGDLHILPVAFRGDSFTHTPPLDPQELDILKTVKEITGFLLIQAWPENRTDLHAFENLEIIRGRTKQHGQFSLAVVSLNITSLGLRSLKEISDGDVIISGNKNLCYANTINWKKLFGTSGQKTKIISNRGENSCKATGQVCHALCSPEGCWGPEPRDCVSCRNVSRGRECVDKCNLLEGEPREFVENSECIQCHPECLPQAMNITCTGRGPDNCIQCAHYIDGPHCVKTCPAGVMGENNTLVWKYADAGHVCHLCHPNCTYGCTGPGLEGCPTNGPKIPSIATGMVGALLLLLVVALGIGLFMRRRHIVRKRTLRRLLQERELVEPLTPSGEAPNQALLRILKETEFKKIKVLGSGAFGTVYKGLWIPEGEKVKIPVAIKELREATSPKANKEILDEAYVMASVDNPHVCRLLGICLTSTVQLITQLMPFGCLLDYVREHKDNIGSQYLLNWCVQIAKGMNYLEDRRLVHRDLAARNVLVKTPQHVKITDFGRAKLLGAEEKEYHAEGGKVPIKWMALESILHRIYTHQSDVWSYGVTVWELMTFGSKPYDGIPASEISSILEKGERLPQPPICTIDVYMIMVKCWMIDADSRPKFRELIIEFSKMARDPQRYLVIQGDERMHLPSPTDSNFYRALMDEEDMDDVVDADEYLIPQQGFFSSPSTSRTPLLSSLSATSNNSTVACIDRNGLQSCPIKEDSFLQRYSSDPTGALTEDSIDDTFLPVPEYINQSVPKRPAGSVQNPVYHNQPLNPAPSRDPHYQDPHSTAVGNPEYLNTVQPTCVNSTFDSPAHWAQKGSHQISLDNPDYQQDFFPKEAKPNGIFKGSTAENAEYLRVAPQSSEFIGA
EGFR (L858R/T790M/C797S), sequence (P00533 25-1210 T790M/C797S/L858R): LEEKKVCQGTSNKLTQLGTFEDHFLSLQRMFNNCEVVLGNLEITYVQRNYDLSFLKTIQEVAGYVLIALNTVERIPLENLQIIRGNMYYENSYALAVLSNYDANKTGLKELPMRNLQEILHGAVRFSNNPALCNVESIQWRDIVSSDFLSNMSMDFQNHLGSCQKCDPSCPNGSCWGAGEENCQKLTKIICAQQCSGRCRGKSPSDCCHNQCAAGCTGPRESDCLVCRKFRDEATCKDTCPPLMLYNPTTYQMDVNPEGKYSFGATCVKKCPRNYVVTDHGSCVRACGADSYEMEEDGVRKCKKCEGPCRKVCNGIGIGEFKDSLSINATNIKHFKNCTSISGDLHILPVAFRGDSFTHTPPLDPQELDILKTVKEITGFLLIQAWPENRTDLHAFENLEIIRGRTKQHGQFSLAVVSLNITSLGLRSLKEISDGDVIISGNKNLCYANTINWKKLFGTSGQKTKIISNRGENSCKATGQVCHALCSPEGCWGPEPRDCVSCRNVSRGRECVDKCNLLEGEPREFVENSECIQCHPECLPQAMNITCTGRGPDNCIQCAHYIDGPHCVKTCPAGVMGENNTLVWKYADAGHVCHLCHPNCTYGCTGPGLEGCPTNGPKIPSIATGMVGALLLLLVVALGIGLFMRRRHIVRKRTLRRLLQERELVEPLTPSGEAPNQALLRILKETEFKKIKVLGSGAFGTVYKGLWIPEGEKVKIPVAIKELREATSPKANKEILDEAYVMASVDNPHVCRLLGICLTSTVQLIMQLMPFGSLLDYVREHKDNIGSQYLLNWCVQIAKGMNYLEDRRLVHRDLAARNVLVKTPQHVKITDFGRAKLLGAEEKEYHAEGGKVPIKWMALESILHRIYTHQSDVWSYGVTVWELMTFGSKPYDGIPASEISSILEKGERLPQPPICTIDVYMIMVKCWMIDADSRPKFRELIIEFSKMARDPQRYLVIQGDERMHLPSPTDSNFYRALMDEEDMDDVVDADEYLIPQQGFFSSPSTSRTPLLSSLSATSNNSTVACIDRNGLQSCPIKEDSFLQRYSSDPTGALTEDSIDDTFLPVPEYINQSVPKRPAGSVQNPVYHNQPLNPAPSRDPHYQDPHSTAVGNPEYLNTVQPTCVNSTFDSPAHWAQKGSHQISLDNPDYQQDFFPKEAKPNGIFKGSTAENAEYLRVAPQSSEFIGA
EGFR (wild-type), sequence (P00533 25-1210): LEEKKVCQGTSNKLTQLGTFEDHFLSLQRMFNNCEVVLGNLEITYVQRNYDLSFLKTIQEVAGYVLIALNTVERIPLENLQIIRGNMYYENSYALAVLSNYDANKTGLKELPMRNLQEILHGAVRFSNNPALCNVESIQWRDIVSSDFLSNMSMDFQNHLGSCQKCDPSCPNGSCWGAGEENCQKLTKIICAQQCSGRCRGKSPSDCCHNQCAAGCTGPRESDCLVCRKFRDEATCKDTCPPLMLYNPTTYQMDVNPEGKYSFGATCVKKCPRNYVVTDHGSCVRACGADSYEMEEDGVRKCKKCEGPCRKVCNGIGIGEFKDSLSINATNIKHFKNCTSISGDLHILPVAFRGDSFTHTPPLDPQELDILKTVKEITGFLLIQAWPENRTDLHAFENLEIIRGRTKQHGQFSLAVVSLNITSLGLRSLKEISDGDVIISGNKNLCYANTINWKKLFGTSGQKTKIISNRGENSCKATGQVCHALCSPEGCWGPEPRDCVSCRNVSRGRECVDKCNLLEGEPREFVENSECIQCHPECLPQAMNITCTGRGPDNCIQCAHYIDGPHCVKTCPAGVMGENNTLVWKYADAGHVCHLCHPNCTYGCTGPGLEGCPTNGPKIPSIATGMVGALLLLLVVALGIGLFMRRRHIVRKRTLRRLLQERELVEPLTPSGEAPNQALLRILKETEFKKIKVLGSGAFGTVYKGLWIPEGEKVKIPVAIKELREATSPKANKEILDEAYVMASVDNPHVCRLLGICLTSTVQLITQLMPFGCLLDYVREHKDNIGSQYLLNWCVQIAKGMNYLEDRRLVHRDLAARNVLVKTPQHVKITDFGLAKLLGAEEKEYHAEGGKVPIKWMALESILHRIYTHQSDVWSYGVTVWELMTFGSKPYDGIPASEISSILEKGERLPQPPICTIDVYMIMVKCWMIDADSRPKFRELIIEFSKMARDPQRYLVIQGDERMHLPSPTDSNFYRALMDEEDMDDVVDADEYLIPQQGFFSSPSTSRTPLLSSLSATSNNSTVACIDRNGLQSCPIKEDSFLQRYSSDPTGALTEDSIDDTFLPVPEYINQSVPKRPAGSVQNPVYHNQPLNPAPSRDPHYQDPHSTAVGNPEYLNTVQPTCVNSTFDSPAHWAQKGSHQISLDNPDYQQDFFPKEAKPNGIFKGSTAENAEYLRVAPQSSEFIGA

Consider `CC(C)c1ccc(N2CC(CS(C)(=O)=O)C2)c2cnc(Nc3ccnc(-c4cnn(S(=O)(=O)C5(C)CC5)c4)n3)cc12` [Compound H18], for which the IC50 in assay [1] (72 h) was found to be 69 nM; in [4], 0.6 nM; in assay [5] it was 7.3 nM; in assay [6] it was 5 nM; in assay [8] it was 2.6 nM. Besides, the GI50 is 46 nM in assay [2], 73 nM in assay [3], 150 nM in assay [7] and 658 nM in [9].

As for `CC(C)c1ccc(N2CC(NS(C)(=O)=O)C2)c2cnc(Nc3ccnc(N4CCC(C)(O)C(F)C4)n3)cc12` (stereo not shown) [Compound P51], the IC50 in [1] (72 h) came out at 181 nM; in [4], 0.12 nM; in assay [5], 13.4 nM; in assay [6], 4.2 nM; in [8], 2.5 nM. Further, the GI50 is 28 nM in assay [2], 86 nM in assay [3], 63 nM in assay [7] and 1750 nM in assay [9].

With `CC(C)c1ccc(N2CC(CC(N)=O)C2)c2cnc(Nc3ccnc(N4CCC(O)C(F)C4)n3)cc12` (stereo not shown) [Compound P7], the GI50 stood at 271 nM in assay [2], 771 nM in assay [3], 554 nM in assay [7] and 7380 nM in [9]. Further, the IC50 in [4] is 0.21 nM; in [5] it was 50.5 nM; in [6], 22 nM; in [8], 14 nM.

`CC(C)c1ccc(N2CC(CS(C)(=O)=O)C2)c2cnc(Nc3ccnc(N4CCC(O)C(F)C4)n3)cc12` (stereo not shown) [Control A, reference compound]: the GI50 was 52 nM in assay [2], 176 nM in assay [3], 38 nM in assay [7] and 2020 nM in assay [9]. The IC50 in assay [4] amounted to 0.19 nM; in assay [5], 30.2 nM; in assay [6], 11 nM; in [8], 7.1 nM.

`CC(C)c1ccc(N2CC(NS(C)(=O)=O)C2)c2cnc(Nc3ccnc(N4CCC(O)C(C)(F)C4)n3)cc12` (stereo not shown) [Compound P46]: the IC50 in assay [1] is 308 nM; in assay [4] it was 0.61 nM; in assay [5], 41.8 nM; in assay [6], 9.3 nM; in [8], 6.2 nM. The GI50 in assay [2] was 88 nM; in assay [3], 208 nM; in assay [7], 271 nM; in assay [9], 3110 nM.

With `CC(C)c1ccc(N2CC(CS(C)(=O)=O)C2)c2cnc(Nc3ccnc(-c4cnn(CC(F)(F)F)c4)n3)cc12` [Compound H11], the IC50 in [1] (72 h) was found to be 97 nM; in assay [4], 0.44 nM; in assay [5], 24.3 nM; in assay [6], 5.1 nM; in assay [8], 5.8 nM. Further, the GI50 in assay [2] is 37 nM; in assay [3] it was 40 nM; in [7], 123 nM; in [9], over 10000 nM.

With `CC(C)c1ccc(N2CC(CS(C)(=O)=O)C2)c2cnc(Nc3ccnc(-c4cn[nH]c4)n3)cc12` [Compound H3], the IC50 came out at 216 nM in assay [1]; 0.7 nM in assay [4]; 11.7 nM in [5]; 4.7 nM in [6]; 5.6 nM in [8]. Moreover, the GI50 in assay [2] was 188 nM; in assay [7] it was 462 nM; in assay [9], 854 nM.

For `CC(C)c1ccc(N2C[C@H](NS(C)(=O)=O)[C@H]2C)c2cnc(Nc3ccnc(N4CCC(O)C(F)C4)n3)cc12` (stereo partly shown) [Compound P25], the IC50 in assay [1] (72 h) came to 71 nM; in [4], 0.08 nM; in assay [5] it was 5.1 nM; in [6], 1.22 nM; in [8] it was 0.77 nM. For the same molecule, the GI50 amounted to 15 nM in assay [2], 42 nM in assay [3], 11 nM in assay [7] and 618 nM in [9].

Turning to `CC(C)c1ccc(N2CC(CC(N)=O)C2)c2cnc(Nc3ccnc(-c4cnn(S(=O)(=O)C5CC5)c4)n3)cc12` [Compound H4], the GI50 in assay [2] was determined as 39 nM; in assay [3], 46 nM; in assay [7], 146 nM; in assay [9] it was 628 nM. Moreover, the IC50 in [4] came out at 0.3 nM; in assay [5] it was 6.1 nM; in assay [6], 2.9 nM; in assay [8] it was 2.1 nM.

Turning to `CC(C)c1ccc(N2CC(CS(C)(=O)=O)C2(C)C)c2cnc(Nc3ccnc(N4CCC(O)C(F)C4)n3)cc12` (stereo not shown) [Compound P8], the IC50 in [4] was 0.97 nM; in assay [5] it was over 100 nM; in assay [6] it was 83.3 nM; in assay [8], 67.8 nM.

As for `CC(C)c1ccc(N2CC(C[S+](C)[O-])C2)c2cnc(Nc3ccnc(N4CCC(O)C(F)C4)n3)cc12` (stereo not shown) [Compound P17], the IC50 in assay [4] was 1.6 nM; in assay [5], over 100 nM; in assay [6] it was over 100 nM; in assay [8], 73.4 nM.

For the molecule `CCCS(=O)(=O)n1cc(-c2nccc(Nc3cc4c(C(C)C)ccc(N5CC(CS(C)(=O)=O)C5)c4cn3)n2)cn1` [Compound H6], the IC50 in [1] was found to be 48 nM; in assay [4] it was 0.3 nM; in assay [5] it was 5.2 nM; in assay [6] it was 2.2 nM; in assay [8] it was 1.5 nM. In addition, the GI50 was determined as 40 nM in assay [2], 90 nM in [7] and 559 nM in [9].

As to `CC(C)c1ccc(N2CC3(CC(S(C)(=O)=O)C3)C2)c2cnc(Nc3ccnc(-c4cnn(S(=O)(=O)C5CC5)c4)n3)cc12` [Compound P3], the GI50 in assay [2] is 43 nM; in assay [3], 55 nM; in [7], 248 nM; in assay [9], 889 nM. The IC50 in [4] is 0.71 nM; in assay [5] it was 17.9 nM; in assay [6] it was 10.6 nM; in assay [8], 5.8 nM.

Take `CC(C)c1ccc(N2CC(NC(=O)N(C)C)C2)c2cnc(Nc3ccnc(N4CCC(O)C(F)C4)n3)cc12` (stereo not shown) [Compound P10]: the IC50 in assay [4] was 0.56 nM; in assay [5], over 100 nM; in assay [6], 41 nM; in [8], 43.2 nM.

For `CC(C)c1ccc(N2CC3(CC(S(C)(=O)=O)C3)C2)c2cnc(Nc3ccnc(N4CCC(O)C(F)C4)n3)cc12` (stereo not shown) [Compound P2], the IC50 was 6.7 nM in assay [4], over 100 nM in [5], over 100 nM in assay [6] and 43 nM in assay [8].
